Laboratory results taken from the NIST ThermoML archive (doi:10.1016/j.tca.2014.05.028).

Assay: xn = mol fraction of the nth substance listed
Details: 101 kPa, Liquid; for viscosity: Falling or rolling sphere viscometry; for mass density: Vibrating tube method

CCC[N+]1(C)CCCC1.[Br-] [1-methyl-1-propylpyrrolidinium bromide] + O
Details	mass density [kg/m3]	viscosity [mPa·s]
298.15 K, x1 = 0.0315	1060.85	1.604
298.15 K, x1 = 0.0664	1111.9	2.896
298.15 K, x1 = 0.0983	1147.67	5.311
298.15 K, x1 = 0.1376	1178.4	8.527
298.15 K, x1 = 0.1685	1196.91	12.41
298.15 K, x1 = 0.2138	1217.36	20.56
298.15 K, x1 = 0.2382	1225.96	26.01
298.15 K, x1 = 0.27	1235.84	35.47
298.15 K, x1 = 0.3143	1245.39	50.7
298.15 K, x1 = 0.3535	1251.89	69.94
298.15 K, x1 = 1	1259.96	–
303.15 K, x1 = 0.0315	1058.76	1.412
303.15 K, x1 = 0.0664	1109.17	2.5
303.15 K, x1 = 0.0983	1144.55	4.504
303.15 K, x1 = 0.1376	1175.05	7.082
303.15 K, x1 = 0.1685	1193.47	10.2
303.15 K, x1 = 0.2138	1213.89	16.41
303.15 K, x1 = 0.2382	1222.51	20.59
303.15 K, x1 = 0.27	1232.42	27.62
303.15 K, x1 = 0.3143	1242.02	39.02
303.15 K, x1 = 0.3535	1248.57	53.25
303.15 K, x1 = 1	1255.92	–
308.15 K, x1 = 0.0315	1056.5	1.216
308.15 K, x1 = 0.0664	1106.34	2.115
308.15 K, x1 = 0.0983	1141.38	3.451
308.15 K, x1 = 0.1376	1171.66	5.766
308.15 K, x1 = 0.1685	1190.01	8.237
308.15 K, x1 = 0.2138	1210.41	12.97
308.15 K, x1 = 0.2382	1219.05	16.15
308.15 K, x1 = 0.27	1228.99	21.43
308.15 K, x1 = 0.3143	1238.64	29.75
308.15 K, x1 = 0.3535	1245.24	40.25
308.15 K, x1 = 1	1251.9	–
313.15 K, x1 = 0.0315	1054.11	1.077
313.15 K, x1 = 0.0664	1103.44	1.841
313.15 K, x1 = 0.0983	1138.15	2.994
313.15 K, x1 = 0.1376	1168.23	4.851
313.15 K, x1 = 0.1685	1186.52	6.89
313.15 K, x1 = 0.2138	1206.9	10.66
313.15 K, x1 = 0.2382	1215.56	13.14
313.15 K, x1 = 0.27	1225.54	17.24
313.15 K, x1 = 0.3143	1235.25	23.61
313.15 K, x1 = 0.3535	1241.91	31.53
313.15 K, x1 = 1	1247.91	–
318.15 K, x1 = 0.0315	1051.58	0.972
318.15 K, x1 = 0.0664	1100.44	1.633
318.15 K, x1 = 0.0983	1134.88	2.652
318.15 K, x1 = 0.1376	1164.78	4.16
318.15 K, x1 = 0.1685	1183	5.833
318.15 K, x1 = 0.2138	1203.37	8.968
318.15 K, x1 = 0.2382	1212.05	10.98
318.15 K, x1 = 0.27	1222.08	14.27
318.15 K, x1 = 0.3143	1231.85	19.29
318.15 K, x1 = 0.3535	1238.59	25.42
318.15 K, x1 = 1	1243.94	–
323.15 K, x1 = 0.0315	1048.87	0.865
323.15 K, x1 = 0.0664	1097.37	1.431
323.15 K, x1 = 0.0983	1131.54	2.372
323.15 K, x1 = 0.1376	1161.28	3.542
323.15 K, x1 = 0.1685	1179.46	4.937
323.15 K, x1 = 0.2138	1199.83	7.49
323.15 K, x1 = 0.2382	1208.53	9.11
323.15 K, x1 = 0.27	1218.61	11.75
323.15 K, x1 = 0.3143	1228.44	15.69
323.15 K, x1 = 0.3535	1235.27	20.44
323.15 K, x1 = 1	1240	–
328.15 K, x1 = 0.0315	1045.65	0.771
328.15 K, x1 = 0.0664	1094.2	1.254
328.15 K, x1 = 0.0983	1128.16	2.085
328.15 K, x1 = 0.1376	1157.76	3.021
328.15 K, x1 = 0.1685	1175.88	4.183
328.15 K, x1 = 0.2138	1196.26	6.287
328.15 K, x1 = 0.2382	1205	7.586
328.15 K, x1 = 0.27	1215.12	9.732
328.15 K, x1 = 0.3143	1225.02	12.85
328.15 K, x1 = 0.3535	1231.95	16.54
328.15 K, x1 = 1	1236.08	–
333.15 K, x1 = 0.0315	1041.46	0.695
333.15 K, x1 = 0.0664	1090.9	1.112
333.15 K, x1 = 0.0983	1124.72	1.841
333.15 K, x1 = 0.1376	1154.2	2.61
333.15 K, x1 = 0.1685	1172.28	3.597
333.15 K, x1 = 0.2138	1192.68	5.348
333.15 K, x1 = 0.2382	1201.44	6.425
333.15 K, x1 = 0.27	1211.61	8.189
333.15 K, x1 = 0.3143	1221.59	10.73
333.15 K, x1 = 0.3535	1228.68	13.7
333.15 K, x1 = 1	1232.19	–
338.15 K, x1 = 0.0315	1036.23	0.64
338.15 K, x1 = 0.0664	1087.31	1.01
338.15 K, x1 = 0.0983	1121.23	1.651
338.15 K, x1 = 0.1376	1150.6	2.311
338.15 K, x1 = 0.1685	1168.66	3.174
338.15 K, x1 = 0.2138	1189.07	4.677
338.15 K, x1 = 0.2382	1197.87	5.592
338.15 K, x1 = 0.27	1208.09	7.083
338.15 K, x1 = 0.3143	1218.14	9.191
338.15 K, x1 = 0.3535	1225.35	11.65
338.15 K, x1 = 1	1228.32	–
343.15 K, x1 = 0.0315	1030.46	0.574
343.15 K, x1 = 0.0664	1083.03	0.881
343.15 K, x1 = 0.0983	1117.67	1.326
343.15 K, x1 = 0.1376	1146.98	1.931
343.15 K, x1 = 0.1685	1165.01	2.763
343.15 K, x1 = 0.2138	1185.45	4.018
343.15 K, x1 = 0.2382	1194.28	4.784
343.15 K, x1 = 0.27	1204.56	6.011
343.15 K, x1 = 0.3143	1214.68	7.777
343.15 K, x1 = 0.3535	1221.99	9.762
343.15 K, x1 = 1	1224.48	–
